According to US20250170240A1, “MODIFIED INVARIANT NATURAL KILLER T CELLS EXPRESSING A CHIMERIC ANTIGEN RECEPTOR AND USES THEREOF” (Tinkeso Therapeutics, Inc., priority 2022, published 2025):

Legend:
CD1d^+ target cells [1] = experiment: Luciferase-based killing assay, glycolipid- or DMSO-pulsed CD1d+ target cells; assay type: cell-based, human; settings: effector thawed iNKT47 CD19 CAR (allo), FIG. 13B
Description: Luciferase-Based Killing Assay: αGalCer or DMSO pulsed target cells were prepared by incubating target cells (2×10^5/mL) at 37° C., 5% CO2 with αGalCer (200 ng/ml) or DMSO (1:500 of 10% stock) overnight and used for cytotoxicity assays after spinning to remove medium containing αGalCer or DMSO. Luciferase-expressing target cells (1×104 in 50 μL per well) were incubated with 50 μL of INKT cells per well at different effector T cell: target cell (E/T) ratios in quadruplicate in a 96-well flat-bottom white polystyrene microplate (Corning, Cat No. 3912). A spontaneous or maximal killing was set up by adding 50 μL per well of culture medium or 1% Triton X-100 instead of INKT cells, respectively. After a standard 4 h or 16 h (as indicated) incubation at 37° C., 10 μL of D-luciferin (1:10 of 30 mg/ml stock) or 50 μL (1:50 of 30 mg/mL) (Caliper Life Sciences, Cat No. XR-1001) was added to each well. Luciferase activity was measured using a Synergy 2 microplate reader (BioTek). Percent specific lysis was calculated as follows: […]

CD1d^+ target cells [2] = experiment: Cytokine release assay (IFN-γ ELISA), glycolipid-pulsed CD1d+ target cells; assay type: cell-based, human; settings: pulsed MV4:11-hfflucN; 3-month cultured INKT47 CD19 CAR (allo) and iNKT48 CD19 CAR/GFP (allo); FIG. 13C
Description: Cytokine Release Assays: Cytokine release assays were performed by co-culturing 1-2×10^5 T cells with 2×10^4 target cells per well in duplicate in 96-well flat-bottom plates. After 24 h, supernatants were assayed using a LEGEND MAX Human IFN-γ ELISA kit (BioLegend, Cat No. 430107).

SMILES: CCCCCCCCCCCCCC[C@@H](O)[C@@H](O)[C@H](CO[C@H]1O[C@H](CO)[C@H](O)[C@H](O)[C@H]1O)NC(=O)CCCCCCCCCCc1ccc(F)cc1 [7DW8-5]
- potency relative to αGalCer in sensitizing CD1d+ target cells (CD1d^+ target cells [1]; Molm13): at least 16 fold
- potency relative to αGalCer in sensitizing CD1d+ target cells (CD1d^+ target cells [1]; THP1): ≥ 64 fold
- potency in stimulating iNKT cells to produce IFN-γ (CD1d^+ target cells [2]): more potent than αGalCer
